Data: US20120172413A1, “INCREASING LIFESPAN BY MODULATING CRTC EXPRESSION OR LOCALIZATION, AND METHODS OF SCREENING FOR MODULATORS OF SAME” (THE SALK INSTITUTE FOR BIOLOGICAL STUDIES, priority 2009, published 2012)
Entries after “also recorded” stand apart in the source; their conditions may differ. Where a name gives a salt, the structure may show the parent alone.

Legend:
[1] = system: CRTC-1::RFP localization in C. elegans intestinal cells; experiment: CRTC-1::RFP localization during tricaine time course (microscopy); assay type: in vivo
Procedure: Except for tricaine time course experiments, worms were in 5 μl anesthetic mounted on 2% agarose pads on glass slides under glass cover slips. All photos were taken using a Zeiss Axiovert microscope & Axiocam. Pictures in FIGS. 2a and 3b used apotome optical sectioning. For the tricaine experiments (FIG. 4a&b), L4 worms were placed in wells of a 96 well plate in 100 μl of tetramisole/M9 with or without tricaine (2 mg/ml). Pictures were taken during time course through the 96 well plate.

[2] = system: CRTC-1::RFP localization in intestinal cells; experiment: Kinase redundancy assay: CRTC-1::RFP localization after tricaine treatment and removal; assay type: in vivo, C. elegans
Procedure: Worms were subjected to RNAi for AMPK family kinases from hatch. 24 hours post L4 worms were then picked into M9 with tricaine (2 mg/ml) in wells of a […]. Worms were left on a rotational shaker at 20° C. for 2 hours. Using a glass pipette (Mair, W. A simple yet effective method to manipulate C. elegans in liquid. Worm Breeders Gazette 18 (2009)), worms were then placed onto NG plates seeded with E. coli (0P50). When tricaine solution had evaporated (approx 20 min), worms were picked onto fresh OP50 plates, 5 worms per plate. […] Time=0 was when moved to fresh OP50 plates.

[3] = aak-1 (tm1944), aak-2 (ok524) mutants (AMPK null)

Row | Structure (SMILES) | effect on CRTC-1 localization ([1]; 0.1 mg/ml in M9 as anesthetic, pilot experiments) | CRTC-1::RFP localization ([1]; CRTC-1::RFP with calcineurin (TAX-6) binding site mutated, 60 minutes of tricaine treatment) | CRTC-1::RFP localization ([1]; tax-6 (ok2065) deletion mutant, up to 2 hours of tricaine treatment) | CRTC-1::RFP localization ([1]; wild type background, intestinal cells, tricaine (2 mg/ml) in M9) | time to CRTC-1::RFP nuclear localization ([1]; wild type background, tricaine added in M9) [min] | re-location of CRTC-1::RFP to the cytosol upon drug removal [2, 3] | tricaine-induced nuclear localization of CRTC-1::RFP [2, 3] | re-location of CRTC-1::RFP to the cytosol upon drug removal ([2]; aak-1 (tm1944), aak-2 (ok524) mutants (AMPK null), listed as Tricaine) | reversibility of CRTC-1 nuclear localization after drug removal ([2]; wild type background)
1 | c1ccc(C2CN3CCSC3=N2)cc1 (stereo not drawn) [tetramisole hydrochloride] | no effect |  |  |  |  |  |  |  | 
2 | CCOC(=O)c1cccc(N)c1 [tricaine] |  | did not shuttle into the nucleus; also recorded: no effect | invariably cytosolic; also recorded: does not respond | rapid nuclear localization | ≤ 30 | relocated to the cytoplasm | expedited | delayed | reversible within two hours
